# Test results as given in patent US9598384B2, “3-(2-amino-ethyl)-alkylidene)-thiazolidine-2,4-dione and 1-(2-amino-ethyl)-alkylidene-1,3-dihydro-indol-2-one derivatives as selective sphingosine kinase 2 inhibitors” (VIRGINIA COMMONWEALTH UNIVERSITY, priority 2012, dated 2017).
# Legend:
# SphK1 = SphK1 (Homo sapiens, UniProt Q9NYA1); assay: SphK1 activity assay; type: biochemical; details: relative activity vs no inhibitor; compounds at 10 μM (FIGS. 1, 4, 6)
# Protocol: A) SphK1 and SphK2 activities were measured with 5 μM sphingosine in the absence or presence of the indicated concentrations of K145 or 10 μM DMS. Data are expressed as percentage SphK activity in the absence of inhibitor; B) Effect of K145 (10 μM) on activity of the indicated enzymes was tested by SelectScreen Kinase Profiling from Invitrogen. CaMK11β, Ca2+/calmodulin-dependent protein kinase II; CDK2, cyclin-dependent kinase 2; EGFR, Epidermal Growth Factor Receptor; Fyn, Fyn Kinase (p55); ERK2, extracellular signal-regulated kinase 2; ERK1, extracellular signal-regulated kinase 1; PKA, protein kinase A; PKCα, protein kinase C α; P13K, phosphatidylinositide 3-kinase. Data are expressed as percentage of control activity averaged from 2 independent experiments.
# FIG. 3. SphK2 was incubated with indicated compounds at 10 μM, then the activity of SphK2 was determined. The data shown here is a relative activity of SphK2 compared to control (no inhibitor, column labeled Sph in the Figure). 96047 is a known SpK2 inhibitor. A5, B26, K25 and QLA13 are known compounds [Li et al. (2009) Bioorg Med Chem Lett 19: 6042-6046; Liu et al. (2012) Eur J Med Chem 47: 125-137] and were tested for purposes of comparison. “A” and “B” refer to different batches of a compound. FIG. 4. SphK1 was incubated with indicated compounds at 10 μM, then the activity of SphK1 was determined. The data shown here is a relative activity of SphK1 compared to control (no inhibitor, column labeled Sph in the Figure). 96091 is a known Spk1 inhibitor. A5, B26, K25 and QLA13 are as above for […]. “A” and “B” refer to different batches of a compound.
# FIG. 6. SphK1 was incubated with indicated compounds at 10 μM, then the activity of SphK2 was determined. The data shown here is a relative activity of SphK2 compared to control (no inhibitor).
# U937 cells [1] = assay: Cell apoptosis assay, annexin V/PI flow cytometry; type: cell-based, human
# Protocol: Apoptosis was measured by flow cytometry using annexin V/propidium iodide (PI) as staining reagent. […] The cells were then incubated with annexin V-fluorescein isothiocyanate (FITC) (BD PharMingen, San Diego, Calif.) and 5 μg/mL propidium iodide (PI), and incubated for 15 minutes at room temperature in the dark per the manufacturer's instructions. The samples were analyzed by flow cytometry using a Becton Dickinson FACScan (Becton Dickinson, San Jose, Calif.) within 1 hr to determine the percentage of cells displaying annexin V staining (early apoptosis) or both annexin V and PI staining (late apoptosis).
# ceramide = assay: Ceramide species in HEK293 cells by LC-ESI-MS/MS; type: cell-based; details: 10 μM, 2 h
# Protocol: (§1) FIG. 16A-E. K145 accumulates and suppresses the S1P level. A and B) U937 cells were treated with K145 at the indicated concentrations for 3 h and the levels of K145 and S1P were measured by ESI-MS/MS. C) HEK293 cells were treated with K145 (10 μM) for 2 h. Lipids were extracted and different chain length species of ceramide were determined by LC-ESI-MS/MS. Numbers indicate chain length followed by the number of double bonds in the fatty acid. Data are averages of triplicate determinations and are expressed as pmol lipid/10^6 cells. D) U937 cells were treated with or without K145 (10 μM) for 3 h and levels of C1P species were determined by ESI-MS/MS. E) U937 cells were treated with FTY720 (1 μM) in the absence or presence of indicated K145 for 3 h, then FTY720-P was measured by ESI-MS/MS. *P<0.05 compared to control.
# [2] = system: ceramide-1-phosphate (C1P); assay: C1P species in U937 cells by ESI-MS/MS; type: cell-based, human; details: 10 μM, 3 h
# Protocol: as §1
# (§2) Next we examined whether K145 affects cellular levels of S1P. […] Therefore, we further characterized K145 in U937 cells. […] This might be due to the fact that many enzymes such as SphK1, SphK2, S1P lyase, and S1P phosphatise, not just SphK2, are involved in the regulation of cellular S1P. […] To further confirm its SphK2 selectivity, we then tested the effects of K145 on the phosphorylation of FTY720, a SphK2 specific substrate.
# U937 cells [3] = assay: Uptake of K145 by U937 cells, ESI-MS/MS; type: in vitro ADME, human; details: 3 h, concentration dependent
# Protocol: as §1, §2
# SphK2 = molecular target: T1, SphK2 (Homo sapiens, UniProt Q9NRA0); assay: Phosphorylation of FTY720 (SphK2 specific substrate) in U937 cells; type: cell-based; set-up: U937 cells were treated with FTY720 (1 μM) in the absence or presence of indicated K145 for 3 h; endogenous in cells; host or cells: U937; details: FTY720 1 μM, 3 h
# T1 sequence (Q9NRA0 1-654): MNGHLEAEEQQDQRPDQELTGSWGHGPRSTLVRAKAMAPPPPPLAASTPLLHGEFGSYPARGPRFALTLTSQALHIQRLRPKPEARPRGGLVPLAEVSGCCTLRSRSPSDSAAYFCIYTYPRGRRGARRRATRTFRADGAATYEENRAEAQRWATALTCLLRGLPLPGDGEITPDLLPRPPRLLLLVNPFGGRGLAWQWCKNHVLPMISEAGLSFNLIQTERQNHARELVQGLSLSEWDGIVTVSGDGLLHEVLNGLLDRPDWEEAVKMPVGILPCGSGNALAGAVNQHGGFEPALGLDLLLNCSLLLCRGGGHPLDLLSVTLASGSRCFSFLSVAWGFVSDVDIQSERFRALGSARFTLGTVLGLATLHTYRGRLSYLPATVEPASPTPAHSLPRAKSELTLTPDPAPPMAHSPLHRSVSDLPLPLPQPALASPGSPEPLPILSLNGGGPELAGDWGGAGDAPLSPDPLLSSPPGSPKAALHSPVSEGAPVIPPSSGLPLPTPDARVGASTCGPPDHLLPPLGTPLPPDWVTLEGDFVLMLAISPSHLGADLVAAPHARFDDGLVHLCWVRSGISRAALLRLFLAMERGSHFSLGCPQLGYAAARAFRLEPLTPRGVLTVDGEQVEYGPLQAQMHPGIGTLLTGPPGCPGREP
# SphK1, sequence (Q9NYA1 whole entry, species assumed): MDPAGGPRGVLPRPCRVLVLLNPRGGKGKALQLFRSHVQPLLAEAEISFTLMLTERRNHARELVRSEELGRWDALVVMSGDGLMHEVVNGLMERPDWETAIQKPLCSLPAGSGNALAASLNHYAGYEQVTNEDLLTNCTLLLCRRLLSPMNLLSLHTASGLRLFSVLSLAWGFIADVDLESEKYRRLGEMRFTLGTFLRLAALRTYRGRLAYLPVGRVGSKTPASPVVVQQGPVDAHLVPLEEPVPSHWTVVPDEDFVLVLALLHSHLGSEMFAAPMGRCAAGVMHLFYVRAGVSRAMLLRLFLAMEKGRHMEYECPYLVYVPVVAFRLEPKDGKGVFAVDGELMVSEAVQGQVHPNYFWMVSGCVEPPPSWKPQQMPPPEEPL
compound,measurement,setting,value
"CCCCOc1ccc(CC/C=C2\SC(=O)N(CCN)C2=O)cc1 [K145, 3-(2-aminoethyl)-5-[3-(4-butoxyl-phenyl)-propylidene]-thiazolidine-2,4-dione]",inhibition of SphK1 activity (in words),SphK1,not SphK1
same,induction of apoptosis in U937 cells,"U937 cells [1]; 5 μM, after 18 hrs",significantly induced apoptosis
same,induction of apoptosis in U937 cells,"U937 cells [1]; 10 μM, 4 hrs treatment",significantly induced apoptosis
same,induction of apoptosis in U937 cells,U937 cells [1]; varying concentrations and intervals,significantly and dose-dependently induced apoptosis
same,ceramide levels,ceramide,without significant effects
same,level of ceramide-1-phosphate (C1P),[2],not significantly affected
same,uptake by U937 cells,U937 cells [3],readily taken up
same,phosphorylation of FTY720,SphK2,inhibited
